Experiments:
[1] = molecular target: T1, GnT-V (β1,6-N-acetylglucosaminyl transferase) (Homo sapiens, UniProt Q09328); test: GnT-V enzyme activity assay with fluorescence-labeled sugar acceptors, product separated by HPLC; assay type: biochemical; details: for Relative reaction rate: acceptor 70 μM, purified GnT-V 0.1 mg protein/ml, GnGn-bi-PA = 100; for reactivity relative to GnGn-bi-PA acceptor taken as 100%: substrate specificity
T1 construct: 73/60 kDa
T1 sequence (Q09328 31-741): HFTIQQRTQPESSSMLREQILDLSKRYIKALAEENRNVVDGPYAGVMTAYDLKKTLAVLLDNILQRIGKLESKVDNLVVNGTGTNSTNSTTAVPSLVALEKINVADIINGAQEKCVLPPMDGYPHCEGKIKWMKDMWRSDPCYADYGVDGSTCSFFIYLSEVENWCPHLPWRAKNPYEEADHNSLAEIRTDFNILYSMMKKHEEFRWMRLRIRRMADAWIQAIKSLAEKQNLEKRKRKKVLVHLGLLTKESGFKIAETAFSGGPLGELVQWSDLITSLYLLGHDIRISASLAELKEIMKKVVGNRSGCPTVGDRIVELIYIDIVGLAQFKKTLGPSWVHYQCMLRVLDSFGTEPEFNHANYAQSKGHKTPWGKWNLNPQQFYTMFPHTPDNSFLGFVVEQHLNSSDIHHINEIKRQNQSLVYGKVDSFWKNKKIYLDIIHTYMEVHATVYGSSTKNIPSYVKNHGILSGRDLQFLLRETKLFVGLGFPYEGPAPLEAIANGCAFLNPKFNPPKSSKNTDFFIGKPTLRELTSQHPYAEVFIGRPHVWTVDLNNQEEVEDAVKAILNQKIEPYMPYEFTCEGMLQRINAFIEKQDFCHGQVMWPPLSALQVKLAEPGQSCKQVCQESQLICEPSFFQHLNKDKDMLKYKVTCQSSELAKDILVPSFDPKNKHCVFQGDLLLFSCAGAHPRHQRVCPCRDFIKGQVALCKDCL
Source text: An enzyme activity can be easily assayed by labeling an acceptor with a radioisotope or with fluorescent substance, adding the enzyme and separating the reaction product by high performance liquid chromatography (HPLC). More specifically, the method reported by Tanigichi et al. (Taniguchi, N., Nishikawa, A., Fujii, S., and Gu. J., Methods Enzymol. 179, 397-408 (1989); Nishikawa, H., Gu, J., Fujii, S., and Tanigichi, N., Biochem. Biophys. Acta, 1035, 313-318 (1990)) may be followed.
Namely, the enzyme activity of GnT-V can be assayed using GnGn-2-aminopyridine (GnGn-bi-PA) as an acceptor, and UDP-GluNAc (Sigma) as a donor. Activity is shown by an amount of transferred N-acetylglucosamine/hour/mg protein. Note, an amount of protein can be measured according to a reported method (Redinbaugh, M. G., and Turley, R. B., Anal. Biochem. 153, 267-271 (1986)) using a BCA kit (Pierce Chemical Company, Rockford, Ill.) and using bovine serum albumin as a standard.
Substrate specificity was determined using the following compound as sugar acceptors according to the above-mentioned enzyme activity measuring method. [drawing 1]
GnGnF--, GnGF--, GGnF--, Gn(Gn)GnF--, Gn(Gn)Gn--, GG--, GnGn--, MM-- and GnM-- were isolated from the bovine IgG treated with anhydrous hydrazine and then labeled with a fluorescence label according to Hase et al. method (Hase, S., Ibuki, T., and Ikehara, T., J. Biochem. 95, 197-203 (1984). The purified GnT-V was diluted with PBS buffer to a final concentration of 0.1 mg protein/ml, and then reacted with each fluorescence-labeled sugar acceptor. A result is shown in Table 2.

GnT-V expression product = molecular target: T2, GnT-V expression product (Homo sapiens, UniProt Q09328); test: Enzyme activity of cloned GnT-V cDNA expressed in COS-1 cells; assay type: biochemical; details: supernatant of disrupted COS-1 cells
T2 sequence (Q09328 1-741): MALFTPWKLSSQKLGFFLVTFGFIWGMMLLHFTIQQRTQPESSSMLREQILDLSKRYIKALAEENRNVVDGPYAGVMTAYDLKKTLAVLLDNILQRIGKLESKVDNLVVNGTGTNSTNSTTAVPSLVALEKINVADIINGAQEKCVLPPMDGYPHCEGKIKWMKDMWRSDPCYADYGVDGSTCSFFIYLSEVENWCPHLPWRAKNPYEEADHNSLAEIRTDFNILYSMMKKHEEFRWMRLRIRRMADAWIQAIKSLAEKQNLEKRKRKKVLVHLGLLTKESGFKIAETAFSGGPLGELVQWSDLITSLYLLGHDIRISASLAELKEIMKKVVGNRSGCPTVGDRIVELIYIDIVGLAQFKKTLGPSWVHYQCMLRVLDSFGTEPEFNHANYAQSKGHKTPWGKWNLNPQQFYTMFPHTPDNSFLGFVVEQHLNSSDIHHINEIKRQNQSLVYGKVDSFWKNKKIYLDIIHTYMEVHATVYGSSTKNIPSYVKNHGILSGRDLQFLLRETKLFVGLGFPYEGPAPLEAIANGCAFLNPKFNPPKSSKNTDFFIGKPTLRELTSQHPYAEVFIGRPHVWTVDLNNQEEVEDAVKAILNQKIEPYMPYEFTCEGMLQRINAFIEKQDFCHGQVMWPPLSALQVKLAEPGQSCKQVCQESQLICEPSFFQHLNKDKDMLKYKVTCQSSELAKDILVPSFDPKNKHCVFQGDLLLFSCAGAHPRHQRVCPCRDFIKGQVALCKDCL
Method: The expression vector constructed in Example 8 was used to express the GnT-V cDNA fragment in animal cells and GnT-V activity of the expressed protein was tested.
Expression vector containing GnT-V cDNA fragment was transfected to COS-1 cells, animal cells for expression, by electroporation. Namely, about 5×10^6 CO.S-1 cells previously prepared were suspended in HEPES buffer (50 mM Hepes, 137 mM NaCl, 5 mM KCl, 0.7 mM NaHPO3, 6 mM dextrose, pH 7.05), 60 μg of the above-mentioned plasmid was added thereon, and 800 μl of the suspension was subjected to electroporation in an electroporator (Bio-Rad) at 250V, […]. Next, all the suspensions of COS-1 cells electroporated with GnT-V gene was plated in a petri dish having the diameter of 6 cm, and cultured at 37° C. in 5% CO2 for 48 hours. The cultured ceils were collected with a rubber-coated police man bar, and suspended in 50 μl of PBS buffer, and the cells were disrupted with a sonicator. Next, the disruptant was centrifuged to collect a supernatant, and 15 μl of the supernatant was used to assay enzyme activity.

reaction of the enzyme with acceptor (qualitative) [1]	Relative reaction rate [1]	reactivity relative to GnGn-bi-PA acceptor taken as 100% [1]	SMILES	conversion of substrate by expression product GnT-V (HPLC elution profile, FIG. 10) (GnT-V expression product)
reacts	125	about 125%	CC(=O)N[C@H]1[C@H](O[C@@H]([C@H](O)[C@H](CNc2ccccn2)NC(C)=O)[C@H](O)CO)O[C@H](CO)[C@@H](O[C@@H]2O[C@H](CO[C@H]3O[C@H](CO)[C@@H](O)[C@H](O)[C@@H]3O[C@@H]3O[C@H](CO)[C@@H](O)[C@H](O)[C@H]3NC(C)=O)[C@@H](O)[C@H](O[C@H]3O[C@H](CO)[C@@H](O[C@@H]4O[C@H](CO)[C@@H](O)[C@H](O)[C@H]4NC(C)=O)[C@H](O)[C@@H]3O[C@@H]3O[C@H](CO)[C@@H](O)[C@H](O)[C@H]3NC(C)=O)[C@@H]2O)[C@@H]1O [GnGnGn-tri-PA, GlcNAcβ1-2(GlcNAcβ1-4)Manα1-3(GlcNAcβ1-2Manα1-6)-Manβ1-4GlcNAcβ1-4GlcNAc-2-aminopyridine]	–
–	0	–	CC(=O)N[C@H]1[C@H](O[C@H]2[C@@H](O)[C@@H](CO)O[C@@H](O[C@@H]([C@H](O)[C@@H](O)CNc3ccccn3)[C@H](O)CO)[C@@H]2O)O[C@H](CO)[C@@H](O)[C@@H]1O [Lacto-N-triaose-PA, GlcNAcβ1-3Galβ1-4Glc-2-aminopyridine]	–
–	0	–	CC(=O)N[C@H]1[C@H](O[C@@H]([C@H](O)[C@H](CNc2ccccn2)NC(C)=O)[C@H](O)CO)O[C@H](CO)[C@@H](O[C@@H]2O[C@H](CO[C@H]3O[C@H](CO)[C@@H](O)[C@H](O)[C@@H]3O[C@@H]3O[C@H](CO)[C@@H](O[C@@H]4O[C@H](CO)[C@H](O)[C@H](O)[C@H]4O)[C@H](O)[C@H]3NC(C)=O)[C@@H](O)[C@H](O[C@H]3O[C@H](CO)[C@@H](O)[C@H](O)[C@@H]3O[C@@H]3O[C@H](CO)[C@@H](O[C@@H]4O[C@H](CO)[C@H](O)[C@H](O)[C@H]4O)[C@H](O)[C@H]3NC(C)=O)[C@@H]2O)[C@@H]1O [GG-bi-PA, Galβ1-4GlcNAcβ1-2Manα1-3(Galβ1-4GlcNAcβ1-2Manα1-6)Manβ1-4GlcNAcβ1-4GlcNAc-2-aminopyridine]	–
–	100	100%	CC(=O)N[C@H]1[C@H](O[C@@H]([C@H](O)[C@H](CNc2ccccn2)NC(C)=O)[C@H](O)CO)O[C@H](CO)[C@@H](O[C@@H]2O[C@H](CO[C@H]3O[C@H](CO)[C@@H](O)[C@H](O)[C@@H]3O[C@@H]3O[C@H](CO)[C@@H](O)[C@H](O)[C@H]3NC(C)=O)[C@@H](O)[C@H](O[C@H]3O[C@H](CO)[C@@H](O)[C@H](O)[C@@H]3O[C@@H]3O[C@H](CO)[C@@H](O)[C@H](O)[C@H]3NC(C)=O)[C@@H]2O)[C@@H]1O [GnGn-bi-PA, GlcNAcβ1-2Manα1-3-(GlcNAcβ1-2Manα1-6)Manβ1-4GlcNAcβ1-4GlcNAc-2-aminopyridine]	converts a substrate GnGn-bi-PA to a product GnGnGn-tri'-PA
–	0	–	CC(=O)N[C@H]1[C@H](O[C@@H]([C@H](O)[C@H](CNc2ccccn2)NC(C)=O)[C@H](O)CO[C@@H]2O[C@@H](C)[C@@H](O)[C@@H](O)[C@@H]2O)O[C@H](CO)[C@@H](O[C@@H]2O[C@H](CO[C@H]3O[C@H](CO)[C@@H](O)[C@H](O)[C@@H]3O[C@@H]3O[C@H](CO)[C@@H](O)[C@H](O)[C@H]3NC(C)=O)[C@@H](O[C@@H]3O[C@H](CO)[C@@H](O)[C@H](O)[C@H]3NC(C)=O)[C@H](O[C@H]3O[C@H](CO)[C@@H](O)[C@H](O)[C@@H]3O[C@@H]3O[C@H](CO)[C@@H](O)[C@H](O)[C@H]3NC(C)=O)[C@@H]2O)[C@@H]1O [Gn(Gn)GnF-bi-PA, GlcNAcβ1-2Manα1-2Manα1-6)-Manβ1-4GlcNAcβ1-4GlcNAc(Fucα1-6)2-aminopyridine]	–
–	0	–	CC(=O)N[C@H]1[C@H](O[C@@H]([C@H](O)[C@H](CNc2ccccn2)NC(C)=O)[C@H](O)CO)O[C@H](CO)[C@@H](O[C@@H]2O[C@H](CO[C@H]3O[C@H](CO)[C@@H](O)[C@H](O)[C@@H]3O[C@@H]3O[C@H](CO)[C@@H](O)[C@H](O)[C@H]3NC(C)=O)[C@@H](O[C@@H]3O[C@H](CO)[C@@H](O)[C@H](O)[C@H]3NC(C)=O)[C@H](O[C@H]3O[C@H](CO)[C@@H](O)[C@H](O)[C@@H]3O[C@@H]3O[C@H](CO)[C@@H](O)[C@H](O)[C@H]3NC(C)=O)[C@@H]2O)[C@@H]1O [Gn(Gn)Gn-bi-PA, GlcNAcβ1-2Manα1-2Manα1-6)-Manβ1-4GlcNAcβ1-4GlcNAc-2-aminopyridine]	–
–	3	–	CC(=O)N[C@H]1[C@H](O[C@@H]([C@H](O)[C@H](CNc2ccccn2)NC(C)=O)[C@H](O)CO[C@@H]2O[C@@H](C)[C@@H](O)[C@@H](O)[C@@H]2O)O[C@H](CO)[C@@H](O[C@@H]2O[C@H](CO[C@H]3O[C@H](CO)[C@@H](O)[C@H](O)[C@@H]3O[C@@H]3O[C@H](CO)[C@@H](O)[C@H](O)[C@H]3NC(C)=O)[C@@H](O)[C@H](O[C@H]3O[C@H](CO)[C@@H](O)[C@H](O)[C@@H]3O[C@@H]3O[C@H](CO)[C@@H](O[C@@H]4O[C@H](CO)[C@H](O)[C@H](O)[C@H]4O)[C@H](O)[C@H]3NC(C)=O)[C@@H]2O)[C@@H]1O [GnGF-bi-PA, Galβ1-4GlcNAcβ1-2Manα1-3(GlcNAcβ1-2Manα1-6)Manβ1-4GlcNAcβ1-4GlcNAc(Fucα1-6)-2-aminopyridine]	–

Reference: patent publication US5834284A, “N-acetylglucosaminyl transferase gene coding therefor and process for production thereof” (Suntory Limited, priority 1992, dated 1998)
